Assay results reported in publication PMC10004634 (PLOS ONE, 2023).

Tests used:
BTK = BTK (Homo sapiens, UniProt Q06187); assay: In vivo pharmacodynamics: BTK phosphorylation in TMD8 xenograft tumors (flow cytometry); set-up: endogenous in cells; host or cells: TMD8 tumour cells from subcutaneous xenografts in SCID mice; settings: TMD8, mouse, 1 h after final administration, read-out: BTK phosphorylation inhibition rate in tumor
Description: One hour after the final dosing, mice underwent laparotomy under isoflurane anesthesia and were sacrificed by exsanguination; tumors were collected. After measuring the wet weight, each tumor was placed on a 70-μm cell strainer (BD Falcon, Franklin Lakes, NJ, USA) placed in one well of a six-well plate on ice. After adding an amount of precooled culture medium, tumor cells were detached. The cell suspension was transferred to a tube and centrifuged for 8 min at 400 × g. Supernatant was excluded by aspiration, and cells were resuspended in culture medium. The tumor suspension was diluted with culture medium to a cell density of 1.0 × 10^6 cells/mL and pipetted into a 96-well plate. […] Cells were incubated for a further 10 min. Fix Buffer 1 (BD Biosciences, Franklin Lakes, NJ, USA) was added to each well, and the plate was centrifuged for 8 min at 400 × g at room temperature; the supernatant was removed by decantation. Each sample was washed twice with Perm Wash Buffer (BD Biosciences) before the addition of rabbit monoclonal p-BTK antibody (Tyr-223) (Novus Biologicals, #NB100-79907) diluted 500-fold with Perm Wash Buffer and 30-min incubation in the dark at room temperature. Cells underwent two rounds of Perm Wash buffer washes and centrifugation before the addition of the secondary antibody (100 μL Alexa Fluor 488 [Fab’] 2 fragments of goat anti-rabbit IgG [H+L]; Thermo Fisher Scientific) diluted 5,000-fold with Perm Wash buffer. After a 30-min incubation in the dark at room temperature, cells were washed once more and suspended with Stain Buffer (BD Biosciences). Cytomics FC500 MPL and data analysis software CXP Analysis (both from Beckman Coulter K.K, Shizuoka, Japan) were used for flow cytometry analysis. A gate containing the cell population of interest was created in a forward scatter and side scatter dot plot. […] The 7-AAD-positive cell rate (%) and the mean fluorescent intensity of BTK phosphorylation in cells in the relevant gate were measured. […]

TEC = target: T1, TEC (Homo sapiens, UniProt P42680); assay: LanthaScreen Eu kinase binding assay; set-up: purchased Thermo Fisher Scientific (Invitrogen LanthaScreen service); settings: 60 min preincubation
T1 sequence (P42680 1-631): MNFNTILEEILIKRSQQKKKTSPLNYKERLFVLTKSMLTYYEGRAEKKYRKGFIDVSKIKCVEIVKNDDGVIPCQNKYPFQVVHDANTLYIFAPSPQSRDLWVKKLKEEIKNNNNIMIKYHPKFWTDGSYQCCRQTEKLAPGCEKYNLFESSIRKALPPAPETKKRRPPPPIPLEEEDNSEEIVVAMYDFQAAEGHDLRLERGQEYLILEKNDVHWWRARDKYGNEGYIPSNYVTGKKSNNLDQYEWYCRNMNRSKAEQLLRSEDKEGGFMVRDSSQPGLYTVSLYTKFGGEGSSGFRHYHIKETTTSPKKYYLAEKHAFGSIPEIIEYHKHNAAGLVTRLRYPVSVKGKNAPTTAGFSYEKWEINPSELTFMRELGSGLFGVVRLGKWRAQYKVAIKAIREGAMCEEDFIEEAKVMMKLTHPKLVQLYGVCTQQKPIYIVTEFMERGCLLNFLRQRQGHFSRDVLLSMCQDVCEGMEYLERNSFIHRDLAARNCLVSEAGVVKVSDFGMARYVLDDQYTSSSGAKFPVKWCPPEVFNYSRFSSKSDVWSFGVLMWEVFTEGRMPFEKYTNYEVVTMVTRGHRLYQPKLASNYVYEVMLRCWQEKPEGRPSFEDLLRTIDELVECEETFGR
Description: In all the assays, each test compound was preincubated with peptide/kinase mixture or kinase/antibody mixture for 60 min at room temperature before adding the ATP solution or AlexaFluor labeled Tracer to initiate the 60-min incubation of the reactants.

Sequence of BTK (Q06187 whole entry): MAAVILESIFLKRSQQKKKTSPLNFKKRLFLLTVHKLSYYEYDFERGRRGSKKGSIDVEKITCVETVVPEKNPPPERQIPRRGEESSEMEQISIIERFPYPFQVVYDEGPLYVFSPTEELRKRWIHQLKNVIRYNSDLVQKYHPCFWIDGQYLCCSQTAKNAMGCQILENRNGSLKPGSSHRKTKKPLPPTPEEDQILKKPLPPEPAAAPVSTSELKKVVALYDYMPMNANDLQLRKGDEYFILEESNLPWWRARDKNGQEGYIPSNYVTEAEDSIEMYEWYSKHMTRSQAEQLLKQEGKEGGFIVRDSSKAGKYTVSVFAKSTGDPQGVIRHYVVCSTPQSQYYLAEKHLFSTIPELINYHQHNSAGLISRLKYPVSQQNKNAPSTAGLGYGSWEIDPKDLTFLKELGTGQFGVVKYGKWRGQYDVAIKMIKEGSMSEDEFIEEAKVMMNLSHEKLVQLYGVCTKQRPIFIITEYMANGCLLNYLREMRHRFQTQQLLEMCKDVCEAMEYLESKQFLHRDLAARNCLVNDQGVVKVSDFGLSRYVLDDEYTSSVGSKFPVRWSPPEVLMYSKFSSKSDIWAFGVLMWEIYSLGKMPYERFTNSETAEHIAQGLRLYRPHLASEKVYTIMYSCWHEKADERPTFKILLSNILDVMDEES

Structure (SMILES): CC#CC(=O)N1CC[C@@H](n2c(=O)n(-c3ccc(Oc4ccccc4)cc3)c3c(N)ncnc32)C1 [Tirabrutinib]
- inhibition at 1 mg/kg (BTK; 1 mg/kg BID 21 days): 64%
- inhibition at 3 mg/kg (BTK; 3 mg/kg BID 21 days): 79.2%
- inhibition at 10 mg/kg (BTK; 10 mg/kg BID 21 days): 85.4%

Structure (SMILES): C=CC(=O)N1CCC([C@@H]2CCNc3c(C(N)=O)c(-c4ccc(Oc5ccccc5)cc4)nn32)CC1 [Zanubrutinib]
- IC50 (TEC): 4.47 nM
